From patent publication US20140179664A1, “Heterocyclyl Pyrimidine Analogues As JAK Inhibitors” (Cellzome Limited, priority 2011, published 2014)

Columns and labels:
Type in all cases: binding
JAK2 = biological target: T1, JAK2 (Homo sapiens, UniProt O60674); assay: Kinobeads assay, JAK2; conditions: mixed Molt4/Ramos lysate, read-out: Inhibition values (IC50) JAK2
T1 construct: endogenous in cells; host or cells: Molt4 (ATCC CRL-1582) and Ramos (ATCC CRL-1596), mixed lysate 1:2
Outline: (§1)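 IC50s come from capture competition: compound at various concentrations versus an immobilized aminopyrido-pyrimidine ligand for kinases in 1:2 Molt4/Ramos lysate (10 mg/mL), 3 h in a cold room. Captured JAK-family kinases were measured by specific-antibody dot blot with Odyssey infrared detection.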

JAK3 = biological target: T2, JAK3 (Homo sapiens, UniProt P52333); assay: Kinobeads assay, JAK3; conditions: mixed Molt4/Ramos lysate, read-out: Inhibition values (IC50) JAK3
T2 construct: endogenous in cells; host or cells: Molt4 (ATCC CRL-1582) and Ramos (ATCC CRL-1596), mixed lysate 1:2
T2 sequence (P52333 1-1124): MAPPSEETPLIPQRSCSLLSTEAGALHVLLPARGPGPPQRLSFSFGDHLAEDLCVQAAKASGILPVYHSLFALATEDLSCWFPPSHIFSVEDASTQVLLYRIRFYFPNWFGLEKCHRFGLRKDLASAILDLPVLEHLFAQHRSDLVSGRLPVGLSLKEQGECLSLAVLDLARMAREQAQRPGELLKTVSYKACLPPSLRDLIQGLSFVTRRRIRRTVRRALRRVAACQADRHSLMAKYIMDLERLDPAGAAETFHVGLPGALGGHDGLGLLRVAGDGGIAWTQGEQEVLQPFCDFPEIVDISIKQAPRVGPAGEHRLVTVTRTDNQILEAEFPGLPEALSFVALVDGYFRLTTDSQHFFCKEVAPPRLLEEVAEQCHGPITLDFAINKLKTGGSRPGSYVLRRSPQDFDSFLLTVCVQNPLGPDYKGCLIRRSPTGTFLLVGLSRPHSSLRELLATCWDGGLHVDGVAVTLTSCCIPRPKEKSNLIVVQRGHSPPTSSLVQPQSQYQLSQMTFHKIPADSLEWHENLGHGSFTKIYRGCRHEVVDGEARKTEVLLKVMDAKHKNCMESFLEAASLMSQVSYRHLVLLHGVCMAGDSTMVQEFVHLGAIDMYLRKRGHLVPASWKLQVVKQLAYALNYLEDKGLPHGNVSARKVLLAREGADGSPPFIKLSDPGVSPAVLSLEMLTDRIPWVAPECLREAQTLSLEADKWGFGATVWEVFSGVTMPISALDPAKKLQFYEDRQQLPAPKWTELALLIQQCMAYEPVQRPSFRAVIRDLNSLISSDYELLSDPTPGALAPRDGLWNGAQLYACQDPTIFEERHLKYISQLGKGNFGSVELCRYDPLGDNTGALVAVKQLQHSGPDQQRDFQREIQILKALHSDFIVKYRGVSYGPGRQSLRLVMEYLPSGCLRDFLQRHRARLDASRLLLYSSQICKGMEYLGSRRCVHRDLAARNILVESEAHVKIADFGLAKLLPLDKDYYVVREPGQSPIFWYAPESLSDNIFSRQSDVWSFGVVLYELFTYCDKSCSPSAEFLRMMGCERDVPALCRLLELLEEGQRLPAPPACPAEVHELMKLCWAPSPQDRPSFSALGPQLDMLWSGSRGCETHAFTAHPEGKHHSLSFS
Outline: as §1

TYK2 = biological target: T3, TYK2 (Homo sapiens, UniProt P29597); assay: Kinobeads assay, TYK2; conditions: mixed Molt4/Ramos lysate, read-out: Inhibition values (IC50) TYK2
T3 construct: endogenous in cells; host or cells: Molt4 (ATCC CRL-1582) and Ramos (ATCC CRL-1596), mixed lysate 1:2
Outline: as §1

T1 sequence (O60674 whole entry): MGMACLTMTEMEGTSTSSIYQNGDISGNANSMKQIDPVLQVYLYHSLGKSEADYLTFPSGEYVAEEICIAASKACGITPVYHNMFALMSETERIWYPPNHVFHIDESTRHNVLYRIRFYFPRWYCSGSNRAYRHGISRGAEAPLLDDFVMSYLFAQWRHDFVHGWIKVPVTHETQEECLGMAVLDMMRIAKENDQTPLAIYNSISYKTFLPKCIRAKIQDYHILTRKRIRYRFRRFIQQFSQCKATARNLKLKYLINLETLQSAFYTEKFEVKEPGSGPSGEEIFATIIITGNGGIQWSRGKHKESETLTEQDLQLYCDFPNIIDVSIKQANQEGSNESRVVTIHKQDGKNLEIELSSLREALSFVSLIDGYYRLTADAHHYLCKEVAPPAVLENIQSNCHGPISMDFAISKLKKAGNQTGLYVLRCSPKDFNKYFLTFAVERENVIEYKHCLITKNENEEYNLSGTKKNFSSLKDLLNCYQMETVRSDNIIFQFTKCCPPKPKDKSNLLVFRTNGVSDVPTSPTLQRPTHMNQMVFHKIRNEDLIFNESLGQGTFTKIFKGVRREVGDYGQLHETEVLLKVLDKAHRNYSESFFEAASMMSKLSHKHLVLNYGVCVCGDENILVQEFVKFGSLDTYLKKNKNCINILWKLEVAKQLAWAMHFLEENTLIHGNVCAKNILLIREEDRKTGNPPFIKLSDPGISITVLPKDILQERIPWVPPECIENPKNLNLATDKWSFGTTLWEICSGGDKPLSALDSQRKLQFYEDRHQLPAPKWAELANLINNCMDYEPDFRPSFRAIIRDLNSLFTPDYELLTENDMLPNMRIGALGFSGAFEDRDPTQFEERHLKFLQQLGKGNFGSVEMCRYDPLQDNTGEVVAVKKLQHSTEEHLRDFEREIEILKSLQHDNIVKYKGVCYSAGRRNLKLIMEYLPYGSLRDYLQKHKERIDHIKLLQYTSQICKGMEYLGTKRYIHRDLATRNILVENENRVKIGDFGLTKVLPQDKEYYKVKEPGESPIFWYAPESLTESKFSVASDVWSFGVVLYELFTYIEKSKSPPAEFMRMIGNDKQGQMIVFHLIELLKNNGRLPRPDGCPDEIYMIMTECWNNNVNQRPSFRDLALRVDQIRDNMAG
T3 sequence (P29597 whole entry): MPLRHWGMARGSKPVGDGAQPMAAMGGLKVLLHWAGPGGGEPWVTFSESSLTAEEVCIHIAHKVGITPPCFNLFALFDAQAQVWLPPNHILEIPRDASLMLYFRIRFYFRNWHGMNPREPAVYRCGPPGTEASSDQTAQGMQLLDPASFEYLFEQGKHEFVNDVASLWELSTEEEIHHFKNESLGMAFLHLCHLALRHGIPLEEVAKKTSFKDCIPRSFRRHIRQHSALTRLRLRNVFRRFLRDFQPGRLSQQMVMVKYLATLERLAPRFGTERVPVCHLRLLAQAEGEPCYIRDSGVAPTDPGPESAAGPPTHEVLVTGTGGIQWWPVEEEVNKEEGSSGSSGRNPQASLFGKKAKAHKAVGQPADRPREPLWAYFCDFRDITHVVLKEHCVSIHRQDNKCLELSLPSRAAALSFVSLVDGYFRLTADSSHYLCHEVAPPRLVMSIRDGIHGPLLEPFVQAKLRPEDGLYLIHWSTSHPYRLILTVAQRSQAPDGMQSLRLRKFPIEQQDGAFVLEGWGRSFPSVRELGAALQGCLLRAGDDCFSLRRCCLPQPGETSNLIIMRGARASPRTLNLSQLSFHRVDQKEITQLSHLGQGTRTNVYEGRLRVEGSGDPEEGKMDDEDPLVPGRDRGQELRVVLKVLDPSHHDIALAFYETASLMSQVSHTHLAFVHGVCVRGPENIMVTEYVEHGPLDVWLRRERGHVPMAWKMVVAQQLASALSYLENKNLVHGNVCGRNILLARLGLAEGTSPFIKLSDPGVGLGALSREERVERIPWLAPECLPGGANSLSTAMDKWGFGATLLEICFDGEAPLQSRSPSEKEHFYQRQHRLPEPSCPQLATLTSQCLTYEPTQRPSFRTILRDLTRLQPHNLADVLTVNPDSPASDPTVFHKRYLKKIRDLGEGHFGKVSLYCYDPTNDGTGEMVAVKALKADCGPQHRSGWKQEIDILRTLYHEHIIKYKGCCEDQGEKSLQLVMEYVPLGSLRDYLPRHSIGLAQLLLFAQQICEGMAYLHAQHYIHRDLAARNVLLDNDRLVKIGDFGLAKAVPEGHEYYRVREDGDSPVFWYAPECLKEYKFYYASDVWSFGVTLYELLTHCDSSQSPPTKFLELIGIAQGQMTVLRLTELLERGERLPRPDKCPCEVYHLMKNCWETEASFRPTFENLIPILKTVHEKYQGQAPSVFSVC

Structure (SMILES) | IC50 (JAK2) | IC50 (JAK3) | IC50 (TYK2)
COCCNC(=O)[C@@H](Nc1nc(Nc2cnn(CCO)c2)ncc1Cl)c1ccccc1 [Compound 48] | 1000 to 10000 nM | < 100 nM | 1000 to 10000 nM
Cn1ccc(Nc2ncc(Cl)c(N[C@H](CO)c3ccccc3)n2)n1 [Compound 11] | ≥ 10000 nM | 100 to 1000 nM | ≥ 10000 nM
CCNC(=O)[C@@H](Nc1nc(Nc2cnn(CCO)c2)ncc1Cl)c1ccccc1 [Compound 27] | ≥ 10000 nM | < 100 nM | 1000 to 10000 nM
O=C(NC1CCCC1)[C@@H](Nc1nc(Nc2cnn(CCO)c2)ncc1Cl)c1ccccc1 [Compound 60] | ≥ 10000 nM | 100 to 1000 nM | 1000 to 10000 nM
Cn1cc(Nc2ncc(Cl)c(NC(CO)Cc3ccccc3)n2)cn1 (stereo not drawn) [Compound 14] | 1000 to 10000 nM | 100 to 1000 nM | 1000 to 10000 nM
Cn1cc(Nc2ncc(Cl)c(NC(CO)c3cccc(N4CC5(COC5)C4)c3)n2)cn1 (stereo not drawn) [Compound 53] | ≥ 10000 nM | 100 to 1000 nM | ≥ 10000 nM
O=C(c1cc(Nc2ncc(Cl)c(N[C@H](CO)c3ccccc3)n2)c[nH]1)N1CCOCC1 [Compound 13] | 100 to 1000 nM | < 100 nM | 100 to 1000 nM
OCCn1cc(Nc2ncc(Cl)c(NC(CO)c3c(F)cccc3F)n2)cn1 (stereo not drawn) [Compound 43] | 1000 to 10000 nM | < 100 nM | 100 to 1000 nM
COC(=O)C(Nc1nc(Nc2cnn(C)c2)ncc1Cl)c1ccccc1 (stereo not drawn) [Compound 16] | ≥ 10000 nM | 100 to 1000 nM | 1000 to 10000 nM
CC(C)NC(=O)Cn1cc(Nc2ncc(Cl)c(N[C@H](CO)c3ccccc3)n2)cn1 [Compound 67] | 1000 to 10000 nM | < 100 nM | 100 to 1000 nM
O=C(NCCO)[C@@H](Nc1nc(Nc2cnn(CCO)c2)ncc1Cl)c1ccccc1 [Compound 47] | 1000 to 10000 nM | < 100 nM | 1000 to 10000 nM
Cn1cc(Nc2ncc(Cl)c(N[C@@H](CO)c3ccccc3)n2)cn1 [Compound 54] | ≥ 10000 nM | 1000 to 10000 nM | 1000 to 10000 nM
OCCn1cc(Nc2ncc(Cl)c(N[C@H](CO)c3ccccn3)n2)cn1 [Compound 80] | 1000 to 10000 nM | < 100 nM | 100 to 1000 nM
CNC(=O)Cn1cc(Nc2ncc(Cl)c(NC(CO)c3c(F)cccc3F)n2)cn1 (stereo not drawn) [Compound 31] | 1000 to 10000 nM | < 100 nM | 1000 to 10000 nM
Cc1cnc(Nc2cnn(CC(=O)N3CCOCC3)c2)nc1NC(CO)c1c(F)cccc1F (stereo not drawn) [Compound 169] | 1000 to 10000 nM | < 100 nM | 100 to 1000 nM
O=C([C@@H](Nc1nc(Nc2cnn(CCO)c2)ncc1Cl)c1ccccc1)N1CCCC1 [Compound 35] | 1000 to 10000 nM | 100 to 1000 nM | 1000 to 10000 nM
CCNC(=O)[C@@H](Nc1nc(Nc2cnn(C)c2)ncc1Cl)c1ccccc1 [Compound 28] | ≥ 10000 nM | < 100 nM | 1000 to 10000 nM
Cn1cc(Nc2ncc(Cl)c(N[C@H](C(=O)N3CCCC3)c3ccccc3)n2)cn1 [Compound 34] | 1000 to 10000 nM | 100 to 1000 nM | ≥ 10000 nM
Cn1cc(Nc2ncc(F)c(NC(CO)c3ccccc3)n2)cn1 (stereo not drawn) [Compound 2] | ≥ 10000 nM | 100 to 1000 nM | 1000 to 10000 nM
OC[C@@H](Nc1nc(Nc2cn[nH]c2)ncc1Cl)c1ccccc1 [Compound 75] | 1000 to 10000 nM | < 100 nM | 1000 to 10000 nM
CC(C)(O)Cn1cc(Nc2ncc(Cl)c(NC(CO)c3c(F)cccc3F)n2)cn1 (stereo not drawn) [Compound 62] | ≥ 10000 nM | < 100 nM | 1000 to 10000 nM
CC(C)OC(=O)Cn1cc(Nc2ncc(Cl)c(N[C@H](CO)c3ccccc3)n2)cn1 [Compound 21] | 1000 to 10000 nM | < 100 nM | 100 to 1000 nM
O=C(O)Cn1cc(Nc2ncc(Cl)c(N[C@H](CO)c3ccccc3)n2)cn1 [Compound 24] | ≥ 10000 nM | < 100 nM | 1000 to 10000 nM
OCCn1cc(Nc2ncc(Cl)c(NC(CO)c3cccc(F)c3)n2)cn1 (stereo not drawn) [Compound 39] | 100 to 1000 nM | < 100 nM | 100 to 1000 nM
